Data reported in patent publication EP0456229A2, “Arylsulfatase” (Bristol-Myers Squibb Company, priority 1990, dated 1991).
One block for each compound: values may come before it.

Key:
[1] = tested on: Es-1 sulfatase; assay: Substrate specificity: hydrolysis of etoposide derivatives (TLC); type: biochemical, Streptomyces griseorubiginosus S980-14; details: 0.6 u enzyme, 50 mM Tris-HCl pH 7.5, 37°C for 18 hours, silica gel TLC
Experimental: • (a) Optimum pH. The stock enzyme solution (0.6 u in 50 µl of 50 mM Tris-HCl, pH 7.5) was added to 100 µl each of the following buffers: 500 mM sodium acetate (pH 4.0-5.5), 500 mM Tris-maleate (pH 5.5-7.5), 500 mM Tris-HCl (pH 7.5-9.0), and 500 mM glycine-NaoH (pH 9.0-10.0). The substrate, p-nitrophenylsulfate, was dissolved in each of the above buffers (1 mg/ml). The enzyme-buffer solution (150 µl) was mixed with 50 µl of the substrate solution in the same buffer as the enzyme, and the mixture was incubated for 30 minutes at 37°C. The reaction was quenched by addition of 100 µl of 0.2 N sodium hydroxide solution. The enzyme activity in each buffer was determined spectrophotometrically by UV at 415 nm. […] The stock enzyme solution was dialyzed against water to remove salts. The dialyzed solution (10 µl) was mixed with 40 µl of 50 mM Tris-HCl buffer (pH 7.5). An aliquot (10 µl) of this solution was mixed with 40 µl each of the buffer listed in (a) and incubated for 30 minutes at 30°C. To this solution (50 µl) were added 100 µl of 500 mM Tris-HCl (pH 9.0) and 50 µl of substrate in water (1 mg/ml), and the mixture was incubated at 37°C for 30 minutes to determine the residual enzyme activity. […] Enzyme (0.6 u) in 150 µl of 50 mM Tris-HCl (pH 8.5) was incubated with p-nitrophenylsulfate in the same buffer (1 mg/ml, 50 µl) for 30 minutes at various temperatures. […] Enzyme preparations (0.6 u) in 50 mM Tris-HCl (150 µl, pH 8.5) were incubated for 15 minutes at various temperatures and then cooled in an ice bath. p-Nitrophenylsulfate in the same buffer (1 mg/ml, 50 µl) was added to the enzyme solution, and the mixture was incubated for 30 minutes at 37°C. […] Fifty µl of enzyme solution (0.6 u in 50 mM Tris-HCl, pH 8.5), 80 µl of 50 mM Tris-HCl (pH 8.5), 50 µl of p-nitrophenyl sulfate (1 mg/ml in same buffer), and 20 µl of ion (10 mM) were mixed. The solution was incubated for 30 minutes at 37°C. p-Nitrophenol released was spectrophotometrically assayed by UV at 415 nm. […] The protocol used in (e) was followed with the exception that 1 mM of an enzyme inhibitor was used instead of a metal ion. […] The protocol used in (e) was followed, except that 5 mM of a salt was used instead of 10 mM of a metal ion. […] Four etoposide derivatives were tested as substrate for the sulfatase of the invention. The substrates are: etoposide 4'-sulfate (III), 2'',3''-di-O-acetyl-etoposide-4'-sulfate (IV), etoposide 2''-sulfate (V), and etoposide 3''-sulfate (VI). […] After 18 hours, 100 µl of methanol was added, and 100 µl of sample was analyzed on a silica gel TLC plate using a solvent system consisting of chloroform-methanol (10:1 v/v). […]

[2] = compared with etoposide; cited from earlier work
[3] = tested on: Es-1 sulfatase; assay: Substrate specificity: hydrolysis of BU-3285T (TLC, UV densitometry); type: biochemical, Streptomyces griseorubiginosus S980-14; details: 0.6 u Es-1 sulfatase, pH 8.5, 18 hours at 37°C, UV densitometry at 254 nm
Experimental: (§1) • (a) Optimum pH. The stock enzyme solution (0.6 u in 50 µl of 50 mM Tris-HCl, pH 7.5) was added to 100 µl each of the following buffers: 500 mM sodium acetate (pH 4.0-5.5), 500 mM Tris-maleate (pH 5.5-7.5), 500 mM Tris-HCl (pH 7.5-9.0), and 500 mM glycine-NaoH (pH 9.0-10.0). The substrate, p-nitrophenylsulfate, was dissolved in each of the above buffers (1 mg/ml). The enzyme-buffer solution (150 µl) was mixed with 50 µl of the substrate solution in the same buffer as the enzyme, and the mixture was incubated for 30 minutes at 37°C. The reaction was quenched by addition of 100 µl of 0.2 N sodium hydroxide solution. The enzyme activity in each buffer was determined spectrophotometrically by UV at 415 nm. […] The stock enzyme solution was dialyzed against water to remove salts. The dialyzed solution (10 µl) was mixed with 40 µl of 50 mM Tris-HCl buffer (pH 7.5). An aliquot (10 µl) of this solution was mixed with 40 µl each of the buffer listed in (a) and incubated for 30 minutes at 30°C. To this solution (50 µl) were added 100 µl of 500 mM Tris-HCl (pH 9.0) and 50 µl of substrate in water (1 mg/ml), and the mixture was incubated at 37°C for 30 minutes to determine the residual enzyme activity. […] After 18 hours, 100 µl of methanol was added, and 100 µl of sample was analyzed on a silica gel TLC plate using a solvent system consisting of chloroform-methanol (10:1 v/v). […]

[4] = tested on: Es-1 sulfatase; assay: Effect of ions / EDTA treatment and Ca2+ recovery of sulfatase activity; type: biochemical, Streptomyces griseorubiginosus S980-14
Experimental: • (a) Optimum pH. The stock enzyme solution (0.6 u in 50 µl of 50 mM Tris-HCl, pH 7.5) was added to 100 µl each of the following buffers: 500 mM sodium acetate (pH 4.0-5.5), 500 mM Tris-maleate (pH 5.5-7.5), 500 mM Tris-HCl (pH 7.5-9.0), and 500 mM glycine-NaoH (pH 9.0-10.0). The substrate, p-nitrophenylsulfate, was dissolved in each of the above buffers (1 mg/ml). The enzyme-buffer solution (150 µl) was mixed with 50 µl of the substrate solution in the same buffer as the enzyme, and the mixture was incubated for 30 minutes at 37°C. The reaction was quenched by addition of 100 µl of 0.2 N sodium hydroxide solution. The enzyme activity in each buffer was determined spectrophotometrically by UV at 415 nm. […] The stock enzyme solution was dialyzed against water to remove salts. The dialyzed solution (10 µl) was mixed with 40 µl of 50 mM Tris-HCl buffer (pH 7.5). An aliquot (10 µl) of this solution was mixed with 40 µl each of the buffer listed in (a) and incubated for 30 minutes at 30°C. To this solution (50 µl) were added 100 µl of 500 mM Tris-HCl (pH 9.0) and 50 µl of substrate in water (1 mg/ml), and the mixture was incubated at 37°C for 30 minutes to determine the residual enzyme activity. […] Enzyme (0.6 u) in 150 µl of 50 mM Tris-HCl (pH 8.5) was incubated with p-nitrophenylsulfate in the same buffer (1 mg/ml, 50 µl) for 30 minutes at various temperatures. […] Enzyme preparations (0.6 u) in 50 mM Tris-HCl (150 µl, pH 8.5) were incubated for 15 minutes at various temperatures and then cooled in an ice bath. p-Nitrophenylsulfate in the same buffer (1 mg/ml, 50 µl) was added to the enzyme solution, and the mixture was incubated for 30 minutes at 37°C. […] Fifty µl of enzyme solution (0.6 u in 50 mM Tris-HCl, pH 8.5), 80 µl of 50 mM Tris-HCl (pH 8.5), 50 µl of p-nitrophenyl sulfate (1 mg/ml in same buffer), and 20 µl of ion (10 mM) were mixed. […] After 18 hours, 100 µl of methanol was added, and 100 µl of sample was analyzed on a silica gel TLC plate using a solvent system consisting of chloroform-methanol (10:1 v/v). […]

[5] = tested on: Es-1 sulfatase; assay: Effect of salts on sulfatase activity; type: biochemical, Streptomyces griseorubiginosus S980-14; details: 5 mM of a salt, 30 minutes at 37°C, pH 8.5
Experimental: as §1

SMILES: COc1cc([C@@H]2c3cc4c(cc3[C@@H](O[C@@H]3O[C@@H]5CO[C@@H](C)O[C@H]5[C@H](O)[C@H]3O)[C@H]3COC(=O)[C@H]23)OCO4)cc(OC)c1OS(=O)(=O)O [(III), etoposide 4'-sulfate]
substrate for the enzyme [1]: are substrates | cytotoxicity [2]: much less cytotoxic than etoposide itself

SMILES: COc1cc(C2c3cc4c(cc3C(OC3OC5COC(C)OC5C(O)C3OS(=O)(=O)O)C3COC(=O)C23)OCO4)cc(OC)c1O (centres unmarked) [(V), etoposide 2''-sulfate]
substrate for the enzyme [1]: are not

SMILES: CCCCC/C=C/C=C\C=C/C(O)C(C)C(C/C=C/C1OC(=O)C=CC1O)OS(=O)(=O)O (centres unmarked) [BU-3285T]
conversion to its desulfated derivative [3]: approximately 70%

SMILES: [Ca+2] [Ca⁺⁺]
sulfatase activity restored ([4]; addition of 1 mM of Ca⁺⁺ to the EDTA treated enzyme): 95% | sulfatase activity level ([4]; calcium ion concentrations over 1 mM added to EDTA treated enzyme): close to the original level

SMILES: O=C(O)CN(CCN(CC(=O)O)CC(=O)O)CC(=O)O [EDTA]
sulfatase activity ([4]; enzyme treated with 10 mM of EDTA followed by dialysis against water at 4°C): disappeared

SMILES: [Cl-].[Na+] [sodium chloride]
sulfatase activity (effect of salts) [5]: strongly inhibited

Now from value to compound:

substrate for the enzyme [1]: are substrates
SMILES: COc1cc(C2c3cc4c(cc3C(OC3OC5COC(C)OC5C(OC(C)=O)C3OC(C)=O)C3COC(=O)C23)OCO4)cc(OC)c1OS(=O)(=O)O (centres unmarked) [(IV), 2'',3''-di-O-acetyl-etoposide-4'-sulfate]

substrate for the enzyme [1]: are not
SMILES: COc1cc(C2c3cc4c(cc3C(OC3OC5COC(C)OC5C(OS(=O)(=O)O)C3O)C3COC(=O)C23)OCO4)cc(OC)c1O (centres unmarked) [(VI), etoposide 3''-sulfate]

sulfatase activity (effect of salts) [5]: strongly inhibited
SMILES: O=P(O)(O)O [phosphate ion]
